This note sets out measurements from ChEMBL document CHEMBL1909046, “DrugMatrix in vitro pharmacology data”.

Assay [1] can be described thus: DRUGMATRIX: Sodium/nucleoside co-transporter radioligand binding (ligand: nitrobenzylthioinosine). The format is cell membranes, Cavia porcellus, Dunkin-Hartley, Cerebral cortex, Membrane. The settings on record: Not Active = under 50% inhibition at 10 µM.
The target in assay [2] is T1, Alpha-1D adrenergic receptor (Homo sapiens, UniProt P25100). Further: in other assays of this panel Not Active means under 50% inhibition at 10 µM.
T1 sequence (P25100 whole entry): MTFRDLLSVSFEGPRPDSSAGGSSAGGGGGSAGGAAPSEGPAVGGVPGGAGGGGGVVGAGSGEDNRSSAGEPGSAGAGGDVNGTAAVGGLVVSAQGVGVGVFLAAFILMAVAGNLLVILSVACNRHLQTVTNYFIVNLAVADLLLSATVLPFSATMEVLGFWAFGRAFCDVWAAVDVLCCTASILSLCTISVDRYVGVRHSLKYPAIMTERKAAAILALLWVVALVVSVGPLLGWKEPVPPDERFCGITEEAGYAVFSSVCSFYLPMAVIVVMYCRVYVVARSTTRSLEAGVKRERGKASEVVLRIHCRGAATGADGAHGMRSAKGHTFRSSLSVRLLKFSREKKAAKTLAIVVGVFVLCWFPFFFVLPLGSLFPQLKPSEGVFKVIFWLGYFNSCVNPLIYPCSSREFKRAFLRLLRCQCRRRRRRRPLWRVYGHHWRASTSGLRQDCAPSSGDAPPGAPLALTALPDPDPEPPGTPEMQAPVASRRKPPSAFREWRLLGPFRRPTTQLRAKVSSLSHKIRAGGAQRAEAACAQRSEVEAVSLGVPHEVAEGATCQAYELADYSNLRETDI
The format is cell membranes, HEK293, Membrane. The conditions noted are these: hek293.

Assay [3] in a line: DRUGMATRIX: Atrial Natriuretic Factor (ANF) radioligand binding (ligand: [125I] ANF (rat)). The format is cell membranes, Cavia porcellus, Dunkin-Hartley, Adrenal gland, Membrane. The conditions noted are these: Not Active = under 50% inhibition at 10 µM.
Assay [4] can be described thus: DRUGMATRIX: Calcium Channel Type L, Benzothiazepine radioligand binding (ligand: [3H] Diltiazem). The format is cell membranes, Rattus norvegicus, Wistar, Brain, Membrane. The settings on record: Not Active = under 50% inhibition at 10 µM.
For assay [5], the target named is 5-hydroxytryptamine receptor 2B (Homo sapiens, UniProt P41595). The format is cell membranes, CHO-K1, Membrane. Further: in other assays of this panel Not Active means under 50% inhibition at 10 µM.
Another assay has as its target Melanocortin receptor 4 (Homo sapiens, UniProt P32245). The format is cell membranes, HEK293, Membrane. The conditions noted are these: hek293. Further: in other assays of this panel Not Active means under 50% inhibition at 10 µM.
Assay [6] addresses Mitogen-activated protein kinase 3 (Homo sapiens, UniProt P27361). The assay can be described thus: DRUGMATRIX: Protein Serine/Threonine Kinase, ERK1 enzyme inhibition (substrate: Myelin Basic Protein). Also on record: species or system Escherichia coli. The conditions noted are these: Not Active = under 50% inhibition at 10 µM.

Mitogen-activated protein kinase 3, sequence (P27361 whole entry): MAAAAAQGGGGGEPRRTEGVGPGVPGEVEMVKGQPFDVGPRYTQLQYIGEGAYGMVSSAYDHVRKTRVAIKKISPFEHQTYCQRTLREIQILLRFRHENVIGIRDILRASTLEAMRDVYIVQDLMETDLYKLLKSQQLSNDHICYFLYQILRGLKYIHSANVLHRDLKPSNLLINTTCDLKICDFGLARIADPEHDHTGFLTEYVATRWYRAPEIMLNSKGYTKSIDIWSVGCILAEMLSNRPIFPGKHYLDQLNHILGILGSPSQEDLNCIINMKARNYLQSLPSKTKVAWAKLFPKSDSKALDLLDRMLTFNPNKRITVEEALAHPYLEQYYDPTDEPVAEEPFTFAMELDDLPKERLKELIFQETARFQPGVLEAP
5-hydroxytryptamine receptor 2B, sequence (P41595 whole entry): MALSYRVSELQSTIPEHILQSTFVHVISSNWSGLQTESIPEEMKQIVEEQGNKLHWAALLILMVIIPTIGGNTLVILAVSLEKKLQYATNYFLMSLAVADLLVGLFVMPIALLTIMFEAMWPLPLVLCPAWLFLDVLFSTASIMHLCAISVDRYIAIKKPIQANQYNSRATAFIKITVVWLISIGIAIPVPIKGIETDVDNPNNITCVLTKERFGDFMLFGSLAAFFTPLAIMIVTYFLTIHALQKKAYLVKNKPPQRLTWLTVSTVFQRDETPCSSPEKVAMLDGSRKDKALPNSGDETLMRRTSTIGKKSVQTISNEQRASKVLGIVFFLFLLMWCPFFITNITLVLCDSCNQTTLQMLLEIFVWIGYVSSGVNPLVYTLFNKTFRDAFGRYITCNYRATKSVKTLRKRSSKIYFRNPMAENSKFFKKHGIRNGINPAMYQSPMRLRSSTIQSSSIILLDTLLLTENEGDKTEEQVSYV
Melanocortin receptor 4, sequence (P32245 whole entry): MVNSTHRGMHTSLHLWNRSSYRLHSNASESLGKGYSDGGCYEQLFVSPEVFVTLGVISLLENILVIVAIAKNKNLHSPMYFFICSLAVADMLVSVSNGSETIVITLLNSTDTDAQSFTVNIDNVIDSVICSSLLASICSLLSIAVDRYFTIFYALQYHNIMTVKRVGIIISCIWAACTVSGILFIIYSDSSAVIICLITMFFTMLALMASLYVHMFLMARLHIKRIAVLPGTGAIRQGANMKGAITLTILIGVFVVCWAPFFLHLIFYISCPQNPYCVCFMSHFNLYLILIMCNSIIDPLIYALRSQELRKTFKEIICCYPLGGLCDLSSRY

A word on the IC50: it is the concentration that inhibits the measured activity by half. What is called Ki is the equilibrium dissociation constant of an inhibitor or competing ligand from its target. In the case of `Cc1onc(-c2ccccc2Cl)c1C(=O)N[C@@H]1C(=O)N2[C@@H]1SC(C)(C)[C@@H]2C(=O)O` [CLOXACILLIN], the IC50 result (in assay [1]; in assay [2]; in assay [3]; in assay [4]; in assay [5] (cho-k1); on Melanocortin receptor 4) was “Not Active” in each case. In assay [6], the 50% inhibitory concentration (IC50) entry is “Not Active”. In addition, the Ki entry in assay [1], in assay [3] and in assay [4] was “Not Active” each time.
In the case of `CC1=C2C(=CO[C@H](C)[C@H]2C)C(O)=C(C(=O)O)C1=O` [CITRININ], the IC50 result (in assay [1]; in assay [2]; in assay [3]; in assay [4]; in assay [5] (cho-k1); on Melanocortin receptor 4) was “Not Active” throughout. In assay [6], the IC50 result is recorded as “Not Active”. Further, the Ki entry in assay [1], in assay [3] and in assay [4] was “Not Active” in each case.
Turning to `CC(C)C(=O)Nc1ccc([N+](=O)[O-])c(C(F)(F)F)c1` [FLUTAMIDE], the IC50 result (in assay [1]; in assay [2]; in assay [3]; in assay [4]; in assay [5] (cho-k1); on Melanocortin receptor 4) was “Not Active” throughout. Besides, in assay [6], the half-maximal inhibitory concentration (IC50) result is listed as “Not Active”. Also, the Ki result in assay [1], in assay [3] and in assay [4] was “Not Active” throughout.
As for `CC[C@@]1(O)C[C@H](O[C@H]2C[C@H](N(C)C)[C@H](O[C@H]3C[C@H](O)[C@H](O[C@H]4CCC(=O)[C@H](C)O4)[C@H](C)O3)[C@H](C)O2)c2c(cc3c(c2O)C(=O)c2c(O)cccc2C3=O)[C@H]1C(=O)OC` [ACLARUBICIN], the IC50 entry in assay [1] was “Not Active”; in assay [2], “Not Active”; in assay [3], “Not Active”; in assay [4], “Not Active”; in assay [5] (read-out: IC50) it was 1110 nM; against Melanocortin receptor 4, “Not Active”. In assay [6], the IC50 entry is given as “Not Active”. The Ki entry in assay [1] was “Not Active”; in assay [3], “Not Active”; in assay [4], “Not Active”; in assay [5] (read-out: Ki), 704 nM.
As for `Nc1nc2c(ncn2CCC(CO)CO)c(=O)[nH]1` [PENCICLOVIR], the IC50 result (in assay [1]; in assay [2]; in assay [3]; in assay [4]; in assay [5] (cho-k1); at Melanocortin receptor 4) was “Not Active” in each case. Moreover, the IC50 entry in assay [6] is reported as “Not Active”. In addition, the inhibition constant (Ki) entry in assay [1], in assay [3] and in assay [4] was “Not Active” in each case.
As to `O=c1oc2ccccc2c(O)c1Cc1c(O)c2ccccc2oc1=O` [DICUMAROL], the IC50 entry (in assay [1]; in assay [2]; in assay [3]; in assay [4]; in assay [5] (cho-k1); on Melanocortin receptor 4) was “Not Active” in each case. Moreover, the IC50 entry in assay [6] is listed as “Not Active”. The Ki result in assay [1], in assay [3] and in assay [4] was “Not Active” each time.
